Test results from the RepoRT retention time repository (doi:10.1016/j.scitotenv.2015.08.078).

Assay: RP, Waters ACQUITY UPLC BEH C18, 100 × 2.1 mm, 1.7 µm, 0.3 mL/min, estimated dead time 0.73 min; A: water + 0.1% formic acid, pH 3; B: methanol + 0.1% formic acid, pH 3; gradient (min/%B) 0/10 14/90 16/90 18/10
Conditions: stereoisomer not certain

Row | SMILES | LC retention time
1 | CCCCC(C)C(OC(=O)CC(CC(=O)O)C(=O)O)C(CC(C)CC(O)CCCCC(O)CC(O)C(C)N)OC(=O)CC(CC(=O)O)C(=O)O (centres undefined) [Fumonisin B1] | 9.48 min
2 | CC(C)(C)NCC(O)c1ccc(O)c(CO)c1 (centres undefined) [Salbutamol] | 2.03 min
3 | CCOc1cc(C(C)(C)C)ccc1C1COC(c2c(F)cccc2F)=N1 (centres undefined) [Etoxazole] | 13.5 min
4 | CC(=O)Nc1ccc(O)cc1 [Acetaminophen] | 2.4 min
5 | CC1CC2C3CC(F)C4=CC(=O)C=CC4(C)C3(F)C(O)CC2(C)C1(O)C(=O)CO (centres undefined) [Flumethasone] | 9.72 min
6 | CCCCCC(C)OC(=O)COc1ccc(Cl)c2cccnc12 (centres undefined) [Cloquintocet - mexyl] | 13 min
7 | CC(C)(C)C(O)C(Cc1ccc(Cl)cc1)n1cncn1 (centres undefined) [Paclobutrazol] | 10.8 min
8 | Cc1cccc(C)c1NC1=NCCCS1 [Xylazine] | 4.92 min
9 | COc1ccc2nc(S(=O)Cc3ncc(C)c(OC)c3C)[nH]c2c1 (centres undefined) [Omeprazole] | 7.14 min
10 | CCCOCCN(C(=O)CCl)c1c(CC)cccc1CC [Pretilachlor] | 12.5 min
11 | CCC(C)C1OC2(C=CC1C)CC1CC(CC=C(C)C(OC3CC(OC)C(OC4CC(OC)C(O)C(C)O4)C(C)O3)C(C)C=CC=C3COC4C(O)C(C)=CC(C(=O)O1)C34O)O2 (centres undefined) [Abamectin B1a] | 13.5 min
12 | CC(C)(C)NCC(O)c1ccc(N)c(C#N)c1 (centres undefined) [Cimbuterol] | 2.78 min
13 | O=C(O)c1ccccc1O [Salicylic acid] | 4.4 min
14 | CCOc1ccc2c(c1)C(C)=CC(C)(C)N2 [Ethoxyquin] | 9.64 min
15 | CC(C)C1(C)N=C(c2nc3ccccc3cc2C(=O)O)NC1=O (centres undefined) [Imazaquin] | 5.22 min
16 | CON=C(C(=O)NC1C(=O)N2C(C(=O)O)=C(COC(N)=O)CSC12)c1ccco1 (centres undefined) [Cefuroxime] | 9.51 min
17 | COc1cc2c(c3oc(=O)c4c(c13)CCOC4=O)C1C=COC1O2 (centres undefined) [Aflatoxin G1] | 7.15 min
18 | CNC(=O)Oc1cccc(N=CN(C)C)c1 [Formetanate] | 2.06 min
19 | CCC1CCCC(OC2CCC(N(C)C)C(C)O2)C(C)C(=O)C2=CC3C(C=CC4CC(OC5OC(C)C(OC)C(OC)C5OC)CC43)C2CC(=O)O1 (centres undefined) [Spinosyn A] | 12 min
20 | O=C(OC1CC2CCC(N2)C1C(=O)O)c1ccccc1 (centres undefined) [Norbenzoylecgonine] | 5.1 min
21 | CCC(C)Nc1c([N+](=O)[O-])cc(C(C)(C)C)cc1[N+](=O)[O-] (centres undefined) [Butralin] | 13.5 min

Row | SMILES | LC retention time
22 | CON=C(C(=O)NC1C(=O)N2C(C(=O)[O-])=C(C[n+]3cccc4c3CCCC4)CSC12)c1csc(N)n1 (centres undefined) [Cefquinome] | 3.4 min
23 | COP(=O)(OC)OC1=C(Cl)C2C=CCC12 (centres undefined) [Heptenophos] | 9.33 min
24 | CCOP(=O)(NC(C)C)Oc1ccc(SC)c(C)c1 (centres undefined) [Fenamiphos] | 11.3 min
25 | Cn1cc(-c2ccccc2)c(=O)c(-c2cccc(C(F)(F)F)c2)c1 [Fluridone] | 9.63 min
26 | NS(=O)(=O)c1cc(C(=O)O)c(NCc2ccco2)cc1Cl [Furosemide] | 6.6 min
27 | O=c1[nH]c2c(c(=O)n1C1CCCCC1)CCC2 [Lenacil] | 8.9 min
28 | CNC(=O)Oc1cc(C)c(SC)c(C)c1 [Methiocarb] | 8.89 min
29 | CC1(C)CON(Cc2ccccc2Cl)C1=O [Clomazone] | 9.54 min
30 | O=C(C1CCCCC1)N1CC(=O)N2CCc3ccccc3C2C1 (centres undefined) [Praziquantel] | 10.1 min
31 | N#CC(CCc1ccc(Cl)cc1)(Cn1cncn1)c1ccccc1 (centres undefined) [Fenbuconazole] | 11.1 min
32 | CCNc1nc(Cl)nc(NC(C)(C)C)n1 [Terbuthylazine] | 10.5 min
33 | CC(C)Nc1nc(Cl)nc(NC(C)C)n1 [Propazine] | 9.88 min
34 | CC(C)(C)C(O)C(Oc1ccc(-c2ccccc2)cc1)n1cncn1 (centres undefined) [Bitertanol] | 12 min
35 | N#CN=C1SCCN1Cc1ccc(Cl)nc1 [Thiacloprid] | 6.28 min
36 | O=C1OCCN1N=Cc1ccc([N+](=O)[O-])o1 [Furazolidone] | 2.96 min
37 | CC#Cc1cc(C)nc(Nc2ccccc2)n1 [Mepanipyrim] | 10.7 min
38 | CCNc1nc(NCC)nc(SC)n1 [Simetryn] | 8.78 min
39 | CC=C(C(=CC)c1ccc(O)cc1)c1ccc(O)cc1 [Dienestrol] | 11.1 min
40 | CN(C)C1C(=O)C(C(N)=O)=C(O)C2(O)C(=O)C3=C(O)c4c(O)cccc4C(C)(O)C3C(O)C12 (centres undefined) [Oxytetracycline] | 3.94 min
41 | O=C(Nc1ccc(F)cc1F)c1cccnc1Oc1cccc(C(F)(F)F)c1 [Diflufenican] | 12.7 min
42 | OC(c1ccc(Cl)cc1)(c1cncnc1)c1ccccc1Cl (centres undefined) [Fenarimol] | 11.6 min

Row | SMILES | LC retention time
43 | CC(Cc1ccc(C(C)(C)C)cc1)CN1CCCCC1 (centres undefined) [Fenpropidin] | 10 min
44 | O=C(O)COC(=O)Cc1ccccc1Nc1c(Cl)cccc1Cl [Aceclofenac] | 10.3 min
45 | CC1(C)CCC(Cc2ccc(Cl)cc2)C1(O)Cn1cncn1 (centres undefined) [Metconazole] | 11.9 min
46 | COCC(=O)N(c1c(C)cccc1C)N1CCOC1=O [Oxadixyl] | 6.71 min
47 | O=C(NC(CO)C(O)c1ccc([N+](=O)[O-])cc1)C(Cl)Cl (centres undefined) [Chloramphenicol] | 5.3 min
48 | Cc1ncc([N+](=O)[O-])n1CCO [Metronidazole (MNZ)] | 5.38 min
49 | Clc1cccc(N2CCNCC2)c1 [mCCP] | 5.23 min
50 | CCCN(CCC)c1c([N+](=O)[O-])cc(S(N)(=O)=O)cc1[N+](=O)[O-] [Oryzalin] | 11.1 min
51 | COc1ccnc(CS(=O)c2nc3ccc(OC(F)F)cc3[nH]2)c1OC (centres undefined) [Pantoprazol] | 7.67 min
52 | CCC1OC(=O)C(C)C(OC2CC(C)(OC)C(O)C(C)O2)C(C)C(OC2OC(C)CC(N(C)C)C2O)C(C)(O)CC(C)C(=O)C(C)C(O)C1(C)O (centres undefined) [Erythromycin] | 9.41 min
53 | CNC(=O)Oc1cccc2c1OC(C)(C)C2O (centres undefined) [Carbofuran-3-OH] | 4.08 min
54 | CCOP(=S)(OCC)Oc1ccc(Cl)cc1Cl [Dichlofenthion] | 13.4 min
55 | Cc1[nH]c(=O)n(C(C)(C)C)c(=O)c1Cl [Terbacil] | 7.42 min
56 | CC(C)Cc1ccc(C(C)C(=O)O)cc1 (centres undefined) [Ibuprofen] | 12.4 min
57 | Clc1ccc(C2(Cn3cncn3)OCCO2)c(Cl)c1 [Azaconazole] | 9.01 min
58 | CCOC(=O)C1CC(=O)C(=C(O)C2CC2)C(=O)C1 (centres undefined) [Trinexapac-ethyl] | 7.6 min
59 | CN(C)S(=O)(=O)N(SC(F)(Cl)Cl)c1ccccc1 [Dichlofluanid] | 10.8 min
60 | Cc1ccc(N=CN(C)C=Nc2ccc(C)cc2C)c(C)c1 [Amitraz] | 13.9 min
61 | Cc1cccc(C)c1N(Cn1cccn1)C(=O)CCl [Metazachlor] | 8.95 min
62 | CCOCN(C(=O)CCl)c1c(C)cccc1CC [Acetochlor] | 11.1 min
63 | CON=C(Cc1cccnc1)c1ccc(Cl)cc1Cl (single isomer, unassigned; isomer 1) [Pyrifenox ISOMER 1] | 10.2 min

Row | SMILES | LC retention time
64 | CC12C=CC(=O)C=C1CCC1C3CC(O)C(O)(C(=O)CO)C3(C)CC(O)C12F (centres undefined) [Triamcinolone] | 6.95 min
65 | CNC(=O)CSP(=O)(OC)OC [Omethoate] | 2.5 min
66 | COC=C(C(=O)OC)c1ccccc1Oc1cc(Oc2ccccc2C#N)ncn1 [Azoxystrobin] | 10.6 min
67 | COc1cc2c(c3oc(=O)c4c(c13)CCC4=O)C1(O)C=COC1O2 (centres undefined) [Aflatoxin M1] | 7.15 min
68 | COP(=S)(OC)Oc1ccc(SC)c(C)c1 [Fenthion] | 11.7 min
69 | CCC(CC)Nc1c([N+](=O)[O-])cc(C)c(C)c1[N+](=O)[O-] [Pendimethalin] | 14.2 min
70 | CC(=O)OCC12CC(OC(=O)CC(C)C)C(C)=CC1OC1C(O)C(OC(C)=O)C2(C)C12CO2 (centres undefined) [T2 Toxin] | 9.98 min
71 | CCC1OC(=O)C(C)C(OC2CC(C)(OC)C(O)C(C)O2)C(C)C(OC2OC(C)CC(N(C)C)C2O)C(C)(O)CC(C)C(=NOCOCCOC)C(C)C(O)C1(C)O (centres undefined) [Roxithromycin] | 10.7 min
72 | CNC(=O)c1cc(Cl)cc(C)c1NC(=O)c1cc(Br)nn1-c1ncccc1Cl [Chlorantraniliprole] | 10.4 min
73 | CCOP(=S)(OCC)Oc1ccc2c(C)c(Cl)c(=O)oc2c1 [Coumaphos] | 12.4 min
74 | CC(C)N1C(=O)c2ccccc2NS1(=O)=O [Bentazon] | 3.68 min
75 | CC(C)NCC(O)c1cc(Cl)c(N)c(Cl)c1 (centres undefined) [Clenproperol] | 4.05 min
76 | CC(C)NCC(O)COc1cccc2[nH]c3ccccc3c12 (centres undefined) [Carazolol] | 6.24 min
77 | CCOC(=O)C(C)Oc1ccc(Oc2nc3ccc(Cl)cc3o2)cc1 (centres undefined) [Fenoxaprop-ethyl] | 12.7 min
78 | O=[N+]([O-])c1cnc(CO)n1CCO [Hydroxymetronidazole (MNZOH)] | 1.9 min
79 | COC(=O)C(C)=COP(=S)(OC)OC [Methacrifos] | 9.37 min
80 | CNC(=O)Oc1cc(C)c(S(C)(=O)=O)c(C)c1 [Methiocarb sulfone] | 4.46 min
81 | CC1Cc2c(Cl)cc(C(=O)NC(Cc3ccccc3)C(=O)O)c(O)c2C(=O)O1 (centres undefined) [Ochratoxin A] | 9.15 min
82 | COc1cc(OC)nc(NC(=O)NS(=O)(=O)c2ncccc2C(=O)N(C)C)n1 [Nicosulfuron] | 5.39 min
83 | O=C(NC(=O)c1c(F)cccc1F)Nc1cc(Cl)c(OC(F)(F)C(F)C(F)(F)F)cc1Cl (centres undefined) [Lufenuron] | 9.67 min
84 | COc1cc2c(c3oc(=O)c4c(c13)CCC4=O)C1C=COC1O2 (centres undefined) [Aflatoxin B1] | 7.97 min
